Data as given in patent publication US6031084A, “Azoamide compound” (Wako Pure Chemical Industries, Ltd., priority 1998, dated 2000).

What was measured:
[1] = Measurement of Solubility in various kinds of polar solvents; type: physicochemical; settings: for Solubility in 2-butanol: solvent: 2-butanol; for Solubility in Acetone: solvent: Acetone; for Solubility in Methanol: solvent: Methanol; for Solubility in Tetrahydrofuran: solvent: Tetrahydrofuran; for Solubility in Water: solvent: Water
Protocol: Solubilities of 2,2'-azobis[N-(butanol-2-yl)-2-methylpropionamide] (hereinafter abbreviated as Present compound 1) obtained by Example 1 and 2,2'-azobis[N-(propanol-2-yl)-2-methylpropionamide] (hereinafter abbreviated as Present compound 2) obtained by Example 2 to various kinds of polar solvent was measured.
The same measurement of solubility as Experiment 1 was conducted except for using of 2,2'-azobis[2-methyl-N-(2-hydroxyethyl)-propionamide] [drawing 9] (hereinafter abbreviated as Known compound 1), 2,2'-azobis {2-methyl-N-[1,1-bis(hydroxymethyl)-2-hydroxyethyl] propionamide} [drawing 10] (hereinafter abbreviated as Known compound 2) and 2,2'-azobis {2-methyl-N-[1,1-bis(hydroxymethyl)ethyl] propionamide} [drawing 11] (hereinafter abbreviated as Known compound 3) in place of Present compound 1.

[2] = 10 hours half life temperature (thermal decomposition); type: physicochemical

| Compound | Solubility in 2-butanol [1] | Solubility in Acetone [1] | Solubility in Methanol [1] | Solubility in Tetrahydrofuran [1] | Solubility in Water [1] | 10 hours half life temperature [2] | Solubility in a various kind of polar solvents compared with Known compounds 1, 2 and 3 (in words) [1] | Solubility in rather low polar solvents such as 2-butanol (in words) [1] |
| --- | --- | --- | --- | --- | --- | --- | --- | --- |
| CC(C)(N=NC(C)(C)C(=O)NC(CO)(CO)CO)C(=O)NC(CO)(CO)CO [Known compound 2, 2,2'-azobis {2-methyl-N-[1,1-bis(hydroxymethyl)-2-hydroxyethyl]propionamide}] | insoluble | insoluble | 1.89 g | insoluble | 2.0 g |  |  |  |
| CC(CO)(CO)NC(=O)C(C)(C)N=NC(C)(C)C(=O)NC(C)(CO)CO [Known compound 3, 2,2'-azobis {2-methyl-N-[1,1-bis(hydroxymethyl)ethyl]propionamide}] | insoluble | insoluble | 5.18 g | insoluble | 0.6 g |  |  |  |
| CC(CO)NC(=O)C(C)(C)N=NC(C)(C)C(=O)NC(C)CO (racemic) [Present compound 2, 2,2'-azobis[N-(propanol-2-yl)-2-methylpropionamide]] | < 0.l | 0.3 g | 6.5 g | 0.3 g | 0.6 g | 83.1 °C | remarkably higher | soluble |
| CC(C)(N=NC(C)(C)C(=O)NCCO)C(=O)NCCO [Known compound 1, 2,2'-azobis[2-methyl-N-(2-hydroxyethyl)-propionamide]] | insoluble | insoluble | 4.55 g | insoluble | 2.4 g |  |  |  |
| CC[C@H](CO)NC(=O)C(C)(C)N=NC(C)(C)C(=O)N[C@H](CC)CO [Present compound 1, 2,2'-azobis[N-(butanol-2-yl)-2-methylpropionamide]] | > 10 g | > 10 g | > 10 g | > 10 g | > 10 g | 84.7 °C | remarkably higher | soluble |
